From ChEMBL document CHEMBL4613209, “Quinolone hybrids and their anti-cancer activities: An overview” (Eur J Med Chem, 2019)

Legend:
Type in all cases: functional, cell-based
[1] = system: L1210; experiment: Cytotoxicity against mouse L1210 cells assessed as reduction in cell viability
[2] = system: CHO; experiment: Cytotoxicity against CHO cells assessed as reduction in cell viability; conditions: Cricetulus griseus
[3] = system: HL-60; experiment: Cytotoxicity against human HL60 cells assessed as reduction in cell viability
[4] = system: A-431; experiment: Cytotoxicity against human A431 cells assessed as reduction in cell viability by MTT assay
[5] = system: EJ; experiment: Cytotoxicity against human EJ cells assessed as reduction in cell viability by MTT assay
[6] = system: MCF7; experiment: Cytotoxicity against human MCF7 cells assessed as reduction in cell viability by MTT assay
[7] = system: SW480; experiment: Cytotoxicity against human SW480 cells assessed as reduction in cell viability by MTT assay
[8] = system: SK-MEL3; experiment: Cytotoxicity against human SK-MEL-3 cells assessed as reduction in cell viability by MTT assay

SMILES	IC50 [1] [µM]	IC50 [2] [µM]	IC50 [3] [µM]	IC50 [4] [µM]	IC50 [5] [µM]	IC50 [6] [µM]	IC50 [7] [µM]	IC50 [8] [µM]
O=c1c(-c2nn3c(-c4cn(C5CC5)c5cc(N6CCNCC6)c(F)cc5c4=O)nnc3s2)cn(C2CC2)c2cc(N3CCNCC3)c(F)cc12	0.12 to 5.2	0.12 to 5.2	0.12 to 5.2					
O=c1c(-c2nnc(-c3cn(C4CC4)c4cc(N5CCNCC5)c(F)cc4c3=O)o2)cn(C2CC2)c2cc(N3CCNCC3)c(F)cc12	0.26 to 14.5	0.26 to 14.5	0.26 to 14.5					
CCn1cc(-c2nnc(-c3cn(C4CC4)c4cc(N5CCNCC5)c(F)cc4c3=O)o2)c(=O)c2cc(F)c(N3CCNCC3)cc21	0.26 to 14.5	0.26 to 14.5	0.26 to 14.5					
CCN1CCN(c2cc3c(nc2F)c(=O)c(-c2nn4c(-c5cn(C6CC6)c6cc(N7CCN(C)CC7)c(F)cc6c5=O)nnc4s2)cn3C2CC2)CC1	0.12 to 5.2	0.12 to 5.2	0.12 to 5.2					
CCN1CCN(c2cc3c(cc2F)c(=O)c(-c2nnc(-c4cn(C5CC5)c5cc(N6CCNCC6)c(F)cc5c4=O)o2)cn3C2CC2)CC1	0.26 to 14.5	0.26 to 14.5	0.26 to 14.5					
COc1ccc(/C=N/NC(=O)c2cn(C3CC3)c3cc(N/N=C/c4ccc(OC)cc4)c(F)cc3c2=O)cc1	1.5 to 23.5	1.5 to 23.5	1.5 to 23.5					
CCN1CCN(c2cc3c(cc2F)c(=O)c(-c2nn4c(-c5cn(C6CC6)c6cc(N7CCNCC7)c(F)cc6c5=O)nnc4s2)cn3C2CC2)CC1	0.12 to 5.2	0.12 to 5.2	0.12 to 5.2					
CCn1cc(C(=O)O)c(=O)c2cc(F)c(N3CCN(CC(=O)c4ccc(Cl)s4)CC3)nc21				≥ 100	≥ 100	≥ 100	≥ 100	≥ 100
CCN1CCN(c2cc3c(cc2F)c(=O)c(-c2nnc4sc(-c5cn6c7c(c(N8CCN(C)CC8)c(F)cc7c5=O)OC[C@@H]6C)nn24)cn3C2CC2)CC1	0.12 to 5.2	0.12 to 5.2	0.12 to 5.2					
CCN1CCN(c2cc3c(cc2F)c(=O)c(-c2nnc4sc(-c5cn6c7c(c(N8CCN(C)CC8)c(F)cc7c5=O)OCC6C)nn24)cn3C2CC2)CC1 (stereo unspecified)	14.2 to 23.7	14.2 to 23.7	14.2 to 23.7					
C[C@H]1COc2c(N3CCN(C)CC3)c(F)cc3c(=O)c(-c4nnc(-c5cn(C6CC6)c6cc(N7CCN(C)CC7)c(F)cc6c5=O)o4)cn1c23	0.26 to 14.5	0.26 to 14.5	0.26 to 14.5					
C[C@H]1COc2c(N3CCN(C)CC3)c(F)cc3c(=O)c(-c4nn5c(-c6cn(C7CC7)c7cc(N8CCNCC8)c(F)cc7c6=O)nnc5s4)cn1c23	0.12 to 5.2	0.12 to 5.2	0.12 to 5.2					
CCn1cc(C(=O)O)c(=O)c2cc(F)c(N3CCNCC3)nc21 [ENOXACIN]				137 to 238	137 to 238	137 to 238	137 to 238	137 to 238
CCn1cc(C(=O)O)c(=O)c2cc(F)c(N3CCN(C/C(=N/OCc4ccccc4)c4cccs4)CC3)nc21				2 to 131	2 to 131	2 to 131	2 to 131	2 to 131
CCn1cc(C(=O)O)c(=O)c2cc(F)c(N3CCN(C/C(=N/OC)c4cccs4)CC3)nc21				2 to 131	2 to 131	2 to 131	2 to 131	2 to 131
CC1COc2c(N3CCN(C)CC3)c(F)cc3c(=O)c(-c4nn5c(-c6cn(C7CC7)c7cc(N8CCNCC8)c(F)cc7c6=O)nnc5s4)cn1c23 (stereo unspecified)	14.2 to 23.7	14.2 to 23.7	14.2 to 23.7					
CCn1cc(C(=O)O)c(=O)c2cc(F)c(N3CCN(C/C(=N/OCc4ccccc4)c4ccc(Cl)s4)CC3)nc21				≤ 20	≤ 20	≤ 20	≤ 20	≤ 20
CC1COc2c(N3CCN(C)CC3)c(F)cc3c(=O)c(-c4nn5c(-c6cn(C7CC7)c7cc(N8CCN(C)CC8)c(F)cc7c6=O)nnc5s4)cn1c23 (stereo unspecified)	14.2 to 23.7	14.2 to 23.7	14.2 to 23.7					
O=C(N/N=C/c1ccc2c(c1)OCO2)c1cn(C2CC2)c2cc(N/N=C/c3ccc4c(c3)OCO4)c(F)cc2c1=O	1.5 to 23.5	1.5 to 23.5	1.5 to 23.5					
COc1cc(/C=N/NC(=O)c2cn(C3CC3)c3cc(N/N=C/c4cc(OC)c(OC)c(OC)c4)c(F)cc3c2=O)cc(OC)c1OC	1.5 to 23.5	1.5 to 23.5	1.5 to 23.5					
CN1CCN(c2cc3c(nc2F)c(=O)c(-c2nnc4sc(-c5cn(C6CC6)c6cc(N7CCNCC7)c(F)cc6c5=O)nn24)cn3C2CC2)CC1	0.12 to 5.2	0.12 to 5.2	0.12 to 5.2					
CCN1CCN(c2cc3c(cc2F)c(=O)c(-c2nnc4sc(-c5cn(C6CC6)c6cc(N7CCNCC7)c(F)cc6c5=O)nn24)cn3C2CC2)CC1	0.12 to 5.2	0.12 to 5.2	0.12 to 5.2					
